Experimental data as given in patent publication US4496584A, “Amidine derivatives with anti-complement activity” (Torii & Co. Ltd., priority 1981, dated 1985).
Values joined by “and” are separate entries in the source; they are usually repeats but may differ in a detail not shown here. Equal entries are not always repeated. Where two headings read alike, the source gives them in different places.

Key:
trypsin = target: T1, trypsin (Bos taurus, UniProt P00760); assay: Enzyme inhibition, TAME hydrolysis, trypsin (method of Muramatsu et al.); format: biochemical; settings: read-out: percentage inhibition, trypsin (figure in parentheses)
T1 sequence (P00760 24-246): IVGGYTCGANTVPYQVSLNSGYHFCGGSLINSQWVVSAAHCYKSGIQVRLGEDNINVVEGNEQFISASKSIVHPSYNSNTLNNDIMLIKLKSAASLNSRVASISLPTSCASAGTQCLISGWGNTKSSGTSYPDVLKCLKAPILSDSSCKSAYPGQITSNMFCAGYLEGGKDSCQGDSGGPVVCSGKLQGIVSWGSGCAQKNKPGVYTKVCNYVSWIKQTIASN
Protocol: (§1) The enzyme inhibitory activity was determined according to the method of Muramatsu et al. [M. Muramatsu, T. Onishi, S. Makino, Y. Hayashi and S. Fujii, J. Biochem., 58, 214 (1965)]. The data summarized in Table 1 are expressed in terms of molar concentration (ID50) of the test compound which inhibits 50% of the activity of each enzyme to hydrolyze TAME (tosylarginine methyl ester).

plasmin = plasmin (Homo sapiens, UniProt P00747); assay: Enzyme inhibition, TAME hydrolysis, plasmin (method of Muramatsu et al.); format: biochemical; settings: read-out: ID50, plasmin
Chain of plasmin (P00747 581-810 limits assumed): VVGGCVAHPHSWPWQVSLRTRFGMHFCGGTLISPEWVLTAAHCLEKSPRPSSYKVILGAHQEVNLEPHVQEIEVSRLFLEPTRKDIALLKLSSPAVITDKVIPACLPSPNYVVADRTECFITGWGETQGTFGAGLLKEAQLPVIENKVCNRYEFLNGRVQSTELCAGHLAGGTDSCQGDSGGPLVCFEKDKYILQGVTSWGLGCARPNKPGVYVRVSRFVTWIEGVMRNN
Chain of plasmin (P00747 97-580 partner limits assumed): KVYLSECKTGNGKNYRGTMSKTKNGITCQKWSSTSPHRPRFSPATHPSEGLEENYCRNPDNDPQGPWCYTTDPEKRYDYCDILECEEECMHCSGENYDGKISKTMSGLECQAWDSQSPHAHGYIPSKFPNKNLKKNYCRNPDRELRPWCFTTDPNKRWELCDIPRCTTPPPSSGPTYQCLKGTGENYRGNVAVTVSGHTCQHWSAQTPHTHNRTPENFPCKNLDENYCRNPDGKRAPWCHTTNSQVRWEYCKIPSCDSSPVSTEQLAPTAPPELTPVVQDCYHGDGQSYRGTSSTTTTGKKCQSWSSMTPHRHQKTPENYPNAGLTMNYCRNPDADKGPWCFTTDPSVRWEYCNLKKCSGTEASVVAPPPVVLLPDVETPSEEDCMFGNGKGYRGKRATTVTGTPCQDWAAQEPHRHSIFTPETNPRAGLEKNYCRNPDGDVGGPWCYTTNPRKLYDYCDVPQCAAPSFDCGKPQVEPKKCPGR
Protocol: as §1

kallikrein = assay: Enzyme inhibition, TAME hydrolysis, kallikrein (method of Muramatsu et al.); format: biochemical; settings: 1×10^-5 M
Protocol: as §1

thrombin = thrombin (Bos taurus, UniProt P00735); assay: Enzyme inhibition, TAME hydrolysis, thrombin (method of Muramatsu et al.); format: biochemical
Protocol: as §1

Clr = target: T2, Clr (Homo sapiens, UniProt P00736); assay: Anti-Cl esterase activity, Clr (AAME hydrolysis, method of Okamura et al.); format: biochemical; settings: read-out: Anti-C1 activity, Clr (ID50)
T2 sequence (P00736 464-705 limits assumed): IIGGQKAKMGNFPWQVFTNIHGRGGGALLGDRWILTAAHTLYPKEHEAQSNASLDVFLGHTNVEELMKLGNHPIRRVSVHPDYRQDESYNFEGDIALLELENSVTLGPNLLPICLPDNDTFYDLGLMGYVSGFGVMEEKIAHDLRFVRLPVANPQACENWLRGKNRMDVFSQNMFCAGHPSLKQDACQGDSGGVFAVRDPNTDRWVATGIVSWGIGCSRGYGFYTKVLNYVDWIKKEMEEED
T2 sequence (P00736 18-463 partner limits assumed): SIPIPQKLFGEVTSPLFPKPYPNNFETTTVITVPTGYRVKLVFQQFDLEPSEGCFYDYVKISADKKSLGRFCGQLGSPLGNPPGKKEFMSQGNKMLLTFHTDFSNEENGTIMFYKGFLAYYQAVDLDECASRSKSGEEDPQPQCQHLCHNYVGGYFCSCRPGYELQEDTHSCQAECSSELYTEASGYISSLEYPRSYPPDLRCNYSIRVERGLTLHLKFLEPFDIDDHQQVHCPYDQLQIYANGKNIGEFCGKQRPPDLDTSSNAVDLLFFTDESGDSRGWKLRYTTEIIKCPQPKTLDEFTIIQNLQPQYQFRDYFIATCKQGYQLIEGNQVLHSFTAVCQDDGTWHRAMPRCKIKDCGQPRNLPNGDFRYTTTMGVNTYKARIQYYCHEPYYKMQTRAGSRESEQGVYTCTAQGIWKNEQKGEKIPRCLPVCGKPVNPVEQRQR
Protocol: (§2) The anti-Cl esterase (Clr, Cls) activity was determined according to the method of Okamura et al. [K. Okamura, M. Muramatsu and S. Fujii, Biochem. Biophys. Acta, 295, 252-257 (1973)]. The inhibition of complement mediated hemolysis (percent) was determined according to the method of Baker et al. [B. R. Baker and E. H. Erickson, J. Med. Chem., 12, 408-414 (1969)]. The figures in Table 2 have the following meanings:
Clr: Molar concentration of the test compound which inhibits 50% of the ability of Clr to hydrolyse AAME (acetylarginin methyl ester) (ID50).

Cls = target: T3, Cls (Homo sapiens, UniProt P09871); assay: Anti-Cl esterase activity, Cls (ATEE hydrolysis, method of Okamura et al.); format: biochemical; settings: read-out: Anti-C1 activity, Cls (ID50)
T3 sequence (P09871 438-688 limits assumed): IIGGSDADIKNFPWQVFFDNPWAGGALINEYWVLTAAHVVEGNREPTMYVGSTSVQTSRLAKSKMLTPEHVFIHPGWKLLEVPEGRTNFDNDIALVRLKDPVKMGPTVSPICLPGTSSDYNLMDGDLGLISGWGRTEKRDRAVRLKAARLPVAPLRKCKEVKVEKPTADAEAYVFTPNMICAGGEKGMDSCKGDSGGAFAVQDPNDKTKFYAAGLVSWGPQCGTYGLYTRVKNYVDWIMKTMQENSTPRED
T3 sequence (P09871 16-437 partner limits assumed): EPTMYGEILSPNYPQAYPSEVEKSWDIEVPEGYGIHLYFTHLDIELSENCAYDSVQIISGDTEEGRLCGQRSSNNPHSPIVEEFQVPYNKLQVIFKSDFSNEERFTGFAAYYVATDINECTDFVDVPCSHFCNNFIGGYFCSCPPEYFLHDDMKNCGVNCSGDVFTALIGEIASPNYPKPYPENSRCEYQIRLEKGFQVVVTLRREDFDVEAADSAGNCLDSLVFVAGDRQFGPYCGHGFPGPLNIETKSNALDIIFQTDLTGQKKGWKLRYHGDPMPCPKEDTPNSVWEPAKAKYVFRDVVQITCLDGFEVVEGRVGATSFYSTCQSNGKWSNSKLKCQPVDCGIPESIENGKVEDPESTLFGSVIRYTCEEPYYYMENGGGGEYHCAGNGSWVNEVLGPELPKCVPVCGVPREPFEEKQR
Protocol: as §2
Cls: Molar concentration of the test compound which inhibits 50% of the ability of Cls to hydrolyse ATEE (acetyltyrosin ethyl ester) (ID50).

[1] = test system: complement mediated hemolysis; assay: Inhibition of complement mediated hemolysis (method of Baker et al.); format: cell-based
Forssman shock = assay: Forssman shock, time elapsed until death; format: in vivo, guinea pig; settings: 5 minutes before hemolysin
Protocol: The experiment was performed according to the method of I. G. Offerness et al. [Biochem. Pharmacol., 27 (14), 1873-1878 (1978)]. Male Hartlay guinea pig of about 300 g in body weight was used. Each guinea pig of the control group was administered intravenously with 0.5 ml (minimum dose to cause the shock) of hemolysin (commercial hemolysin, 5,000 U as assayed by the method of Ogata) and the time elapsed until death was observed. For the test group, each guinea pig was administered intravenously with the test compound 5 minutes before the administration of hemolysin and the time (second) elapsed until death was observed.

[2] = Toxicity, lethal dose (LD50); settings: mouse, in vivo

## N=C(N)c1ccc2cc(OC(=O)[C@H]3CC[C@H](CN)CC3)ccc2c1 [Compound No. 20, 6-amidino-2-naphthyl trans-4-aminomethylcyclohexanecarboxylate]
trypsin
  inhibition at 10 µM: 28%
plasmin
  IC50: > 10 µM
kallikrein
  percentage inhibition, kallikrein (figure in parentheses): 38%
thrombin
  IC50: > 10 µM
Clr
  IC50: 5 µM
Cls
  IC50: 4 µM
[1]; concentration 1 × 10^-4
  Inhibition of complement mediated hemolysis (%): 100%
[1]; concentration 1 × 10^-5
  Inhibition of complement mediated hemolysis (%): 99%
[1]; concentration 1 × 10^-6
  Inhibition of complement mediated hemolysis (%): 80%
[1]; concentration 1 × 10^-7
  Inhibition of complement mediated hemolysis (%): 12%
Forssman shock; 1.0 mg/kg intravenously, average of 6, control average 428
  time elapsed until death, Average: 442 s
Forssman shock; 1.0 mg/kg intravenously, individual animals 1-6
  time elapsed until death: 360 s and 365 s and 325 s and 620 s and 650 s
Forssman shock; 3.0 mg/kg intravenously, individual animals 1-6, ditto mark = Survival
  time elapsed until death / survival: Survival
[2]; ip, read-out: LD50 Mouse IP
  LD50: 175 mg/kg
[2]; po, read-out: LD50 Mouse PO
  LD50: 2000 mg/kg
